Values quoted from earlier work as cited in patent US7429390B2, “Stable pharmaceutical compositions, processes for making the same and methods of their use” (priority 2007, dated 2008).
Read-outs that look alike come from different tables or passages of the source.

SMILES: CNC(=C[N+](=O)[O-])NCCSCc1ccc(CN(C)C)o1 [compound of Formula I, N-[2-[[[5-(dimethylamino)methyl-2-furanyl]methyl]thio]ethyl]-N′-methyl-2-nitro-1,1-ethenediamine]
- time to symptomatic relief (GERD, after starting therapy with 150 mg b.i.d.): ≤ 24 h
- time to symptomatic relief of heartburn (endoscopically diagnosed erosive esophagitis, therapy initiation with 150 mg b.i.d.): ≤ 24 h
- time in which most patients heal (short-term treatment of active duodenal ulcer): ≤ 4 weeks
- time in which most patients heal (short-term treatment of active, benign gastric ulcer): ≤ 6 weeks
